Laboratory results reported in patent US10174037B2, “Dihydropyrazolopyrimidinone compounds as PDE2 inhibitors” (Merck Sharp & Dohme Corp., priority 2015, dated 2019).

What was measured:
Rhesus PDE2A3 = Rhesus PDE2A3 (Macaca mulatta, UniProt B3VTJ2); test: PDE2 fluorescence polarization (IMAP FP) assay, rhesus PDE2A3; format: biochemical, rhesus macaque; conditions: Lab B, read-out: Rhesus PDE2 Ki (nM) Lab B
human PDE2A1 = human PDE2A1 (Homo sapiens (Human), UniProt O00408); test: PDE selectivity IMAP FP assay, human PDE2A1; format: biochemical; conditions: Human PDE2; Lab B; read-out: Human PDE2 Ki (nM) Lab B
Procedure, shortened: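 IMAP fluorescence polarization assay; PDE2 substrate 50 nM FAM-cAMP containing 1000 nM cGMP, enzyme diluted for 20% substrate conversion, in 10 mM Tris HCl pH 7.2, 10 mM MgCl2, 1 mM DTT. Reaction 60 min at room temperature, stopped with IMAP binding solution; polarization read after 1 h. Ki reported.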

Sequence of human PDE2A1 (O00408 other isoform, or with tags, fused parts or gaps): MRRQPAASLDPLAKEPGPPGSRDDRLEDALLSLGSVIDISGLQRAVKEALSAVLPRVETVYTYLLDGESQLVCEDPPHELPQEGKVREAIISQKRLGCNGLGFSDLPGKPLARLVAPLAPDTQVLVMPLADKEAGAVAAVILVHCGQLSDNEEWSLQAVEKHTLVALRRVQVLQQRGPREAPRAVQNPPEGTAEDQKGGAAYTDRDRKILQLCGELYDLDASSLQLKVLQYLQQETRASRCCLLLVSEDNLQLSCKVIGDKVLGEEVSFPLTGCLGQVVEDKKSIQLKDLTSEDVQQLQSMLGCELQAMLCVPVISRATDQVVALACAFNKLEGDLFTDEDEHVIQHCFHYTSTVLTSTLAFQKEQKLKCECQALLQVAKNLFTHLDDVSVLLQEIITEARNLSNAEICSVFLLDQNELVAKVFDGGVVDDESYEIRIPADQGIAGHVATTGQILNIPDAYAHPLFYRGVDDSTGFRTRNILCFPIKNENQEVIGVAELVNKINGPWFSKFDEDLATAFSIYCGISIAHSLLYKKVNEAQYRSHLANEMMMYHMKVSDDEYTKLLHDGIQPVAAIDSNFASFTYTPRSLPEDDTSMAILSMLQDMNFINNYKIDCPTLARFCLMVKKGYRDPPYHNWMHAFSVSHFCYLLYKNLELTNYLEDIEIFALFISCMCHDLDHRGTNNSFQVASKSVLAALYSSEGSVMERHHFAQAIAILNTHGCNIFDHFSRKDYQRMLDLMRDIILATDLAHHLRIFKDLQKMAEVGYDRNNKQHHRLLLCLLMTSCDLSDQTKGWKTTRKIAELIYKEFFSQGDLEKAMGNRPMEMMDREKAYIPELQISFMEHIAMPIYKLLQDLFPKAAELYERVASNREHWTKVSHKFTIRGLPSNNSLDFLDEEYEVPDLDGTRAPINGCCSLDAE
Sequence of Rhesus PDE2A3 (B3VTJ2 1-941): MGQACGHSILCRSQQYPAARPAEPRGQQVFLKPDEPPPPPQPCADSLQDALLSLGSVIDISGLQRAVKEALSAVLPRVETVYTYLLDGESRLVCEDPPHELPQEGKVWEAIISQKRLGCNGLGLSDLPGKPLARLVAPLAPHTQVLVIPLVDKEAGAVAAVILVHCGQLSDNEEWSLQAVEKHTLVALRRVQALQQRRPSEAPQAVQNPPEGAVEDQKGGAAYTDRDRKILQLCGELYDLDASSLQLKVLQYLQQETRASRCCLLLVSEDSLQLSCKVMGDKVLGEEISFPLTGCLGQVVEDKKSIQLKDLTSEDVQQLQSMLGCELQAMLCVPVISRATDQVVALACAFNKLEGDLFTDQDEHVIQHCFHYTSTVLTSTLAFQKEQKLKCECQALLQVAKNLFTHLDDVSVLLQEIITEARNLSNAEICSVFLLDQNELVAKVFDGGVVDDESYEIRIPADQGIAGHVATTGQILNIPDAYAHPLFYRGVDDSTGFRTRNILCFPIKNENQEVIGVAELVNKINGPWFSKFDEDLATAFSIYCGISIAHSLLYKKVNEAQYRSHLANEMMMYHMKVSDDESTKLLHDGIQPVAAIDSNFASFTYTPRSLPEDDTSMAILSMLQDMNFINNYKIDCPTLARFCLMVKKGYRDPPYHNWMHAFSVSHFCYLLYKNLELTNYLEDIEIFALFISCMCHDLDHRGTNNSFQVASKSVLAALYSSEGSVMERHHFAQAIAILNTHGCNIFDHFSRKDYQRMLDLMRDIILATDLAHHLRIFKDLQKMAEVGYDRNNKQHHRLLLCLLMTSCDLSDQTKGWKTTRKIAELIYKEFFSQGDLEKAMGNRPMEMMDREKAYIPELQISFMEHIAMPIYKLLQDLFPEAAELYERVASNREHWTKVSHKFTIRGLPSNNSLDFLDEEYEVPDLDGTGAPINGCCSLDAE

Row | Structure (SMILES) | Ki (Rhesus PDE2A3) | Ki (human PDE2A1)
1 | CN(C)c1nc2c(c(CO)nn2C(c2ccc(C(F)(F)F)cc2F)C2CC2)c(=O)[nH]1 (single isomer, unassigned) [Example 135, (S)- or (R)-1-(Cyclopropyl(2-fluoro-4-(trifluoromethyl)phenyl)methyl)-6-(dimethylamino)-3-(hydroxymethyl)-1H-pyrazolo[3,4-d]pyrimidin-4(5H)-one] | 0.72 nM | 0.6 nM
2 | CCC(c1ccc(C(C)(F)F)cc1)n1nc(CO)c2c(=O)[nH]c(N(C)C)nc21 (single isomer, unassigned) [Example 137, (S)- or (R)-1-(1-(4-(1,1-Difluoroethyl)phenyl)propyl)-6-(dimethylamino)-3-(hydroxymethyl)-1H-pyrazolo[3,4-d]pyrimidin-4(5H)-one] | 0.14 nM | 0.073 nM
3 | CC(C)C(c1ccc(C(C)(F)F)cc1)n1nc(CO)c2c(=O)[nH]c(N(C)C)nc21 (single isomer, unassigned) [Example 138, (R)- or (S)-1-(1-(4-(1,1-Difluoroethyl)phenyl)-2-methylpropyl)-6-(dimethylamino)-3-(hydroxymethyl)-1H-pyrazolo[3,4-d]pyrimidin-4(5H)-one] | 0.41 nM | 0.19 nM
4 | CC(C)C(c1ccc(C(C)(F)F)cc1)n1nc(CO)c2c(=O)[nH]c(N(C)C)nc21 (single isomer, unassigned) [Example 139, (S)- or (R)-1-(1-(4-(1,1-Difluoroethyl)phenyl)-2-methylpropyl)-6-(dimethylamino)-3-(hydroxymethyl)-1H-pyrazolo[3,4-d]pyrimidin-4(5H)-one] | 0.04 nM | 0.064 nM
5 | CN(C)c1nc2c(c(CO)nn2C(c2ccc(C(C)(F)F)cc2)C2CC2)c(=O)[nH]1 (single isomer, unassigned) [Example 140, (R)- or (S)-1-(Cyclopropyl(4-(1,1-difluoroethyl)phenyl)methyl)-6-(dimethylamino)-3-(hydroxymethyl)-1H-pyrazolo[3,4-d]pyrimidin-4(5H)-one] | 0.097 nM | 0.07 nM
6 | CN(C)c1nc2c(c(CO)nn2C(c2ccc(C(C)(F)F)cc2)C2CC2)c(=O)[nH]1 (single isomer, unassigned) [Example 141, (S)- or (R)-1-(Cyclopropyl(4-(1,1-difluoroethyl)phenyl)methyl)-6-(dimethylamino)-3-(hydroxymethyl)-1H-pyrazolo[3,4-d]pyrimidin-4(5H)-one] | 0.64 nM | 0.56 nM
7 | CC(C)C(c1ccc(C(F)(F)F)c(F)c1)n1nc(CO)c2c(=O)[nH]c(N(C)C)nc21 (single isomer, unassigned) [Example 142, (R)- or (S)-6-(Dimethylamino)-1-(1-(3-fluoro-4-(trifluoromethyl)phenyl)-2-methylpropyl)-3-(hydroxymethyl)-1H-pyrazolo[3,4-d]pyrimidin-4(5H)-one] | 0.29 nM | 0.19 nM
8 | CC(C)C(c1ccc(C(F)(F)F)c(F)c1)n1nc(CO)c2c(=O)[nH]c(N(C)C)nc21 (single isomer, unassigned) [Example 143, (S)- or (R)-6-(Dimethylamino)-1-(1-(3-fluoro-4-(trifluoromethyl)phenyl)-2-methylpropyl)-3-(hydroxymethyl)-1H-pyrazolo[3,4-d]pyrimidin-4(5H)-one] | 0.063 nM | 0.068 nM
9 | CCC(c1ccc(C(F)(F)F)c(F)c1)n1nc(CO)c2c(=O)[nH]c(N(C)C)nc21 (single isomer, unassigned) [Example 144, (R)- or (S)-6-(Dimethylamino)-1-(1-(3-fluoro-4-(trifluoromethyl)phenyl)propyl)-3-(hydroxymethyl)-1H-pyrazolo[3,4-d]pyrimidin-4(5H)-one] | 3.1 nM | 1.7 nM
10 | CCC(c1ccc(C(F)(F)F)c(F)c1)n1nc(CO)c2c(=O)[nH]c(N(C)C)nc21 (single isomer, unassigned) [Example 145, (S)- or (R)-6-(Dimethylamino)-1-(1-(3-fluoro-4-(trifluoromethyl)phenyl)propyl)-3-(hydroxymethyl)-1H-pyrazolo[3,4-d]pyrimidin-4(5H)-one] | 0.13 nM | 0.11 nM
11 | CC(c1ccc(OC(F)(F)F)cc1)n1nc(CO)c2c(=O)[nH]c(N(C)C)nc21 (single isomer, unassigned) [Example 148, (R)- or (S)-6-(Dimethylamino)-3-(hydroxymethyl)-1-(1-(4-(trifluoromethoxy)phenyl)ethyl)-1H-pyrazolo[3,4-d]pyrimidin-4(5H)-one] | 3.3 nM | 2.6 nM
12 | CC(c1ccc(OC(F)(F)F)cc1)n1nc(CO)c2c(=O)[nH]c(N(C)C)nc21 (single isomer, unassigned) [Example 149, (S)- or (R)-6-(Dimethylamino)-3-(hydroxymethyl)-1-(1-(4-(trifluoromethoxy)phenyl)ethyl)-1H-pyrazolo[3,4-d]pyrimidin-4(5H)-one] | 0.46 nM | 0.51 nM
13 | CN(C)c1nc2c(c(CO)nn2C(c2ccc(C(F)(F)F)c(F)c2)C2CC2)c(=O)[nH]1 (single isomer, unassigned) [Example 150, (R)- or (S)-1-(Cyclopropyl(3-fluoro-4-(trifluoromelhyl)phenyl)methyl)-6-(dimethylamino)-3-(hydroxymethyl)-1H-pyrazolo[3,4-d]pyrimidin-4(5H)-one] | 0.12 nM | 0.12 nM
14 | CN(C)c1nc2c(c(CO)nn2C(c2ccc(C(F)(F)F)c(F)c2)C2CC2)c(=O)[nH]1 (single isomer, unassigned) [Example 151, (S)- or (R)-1-(Cyclopropyl(3-fluoro-4-(trifluoromethyl)phenyl)methyl)-6-(dimethylamino)-3-(hydroxymethyl)-1H-pyrazolo[3,4-d]pyrimidin-4(5H)-one] | 0.79 nM | 0.61 nM
15 | CN(C)c1nc2c(c(CO)nn2C(c2ccc(C(F)F)c(F)c2)C2CC2)c(=O)[nH]1 (single isomer, unassigned) [Example 152, (R)- or (S)-1-(Cyclopropyl(4-(difluoromethyl)-3-fluorophenyl)methyl)-6-(dimethylamino)-3-(hydroxymethyl)-1H-pyrazolo[3,4-d]pyrimidin-4(5H)-one] | 0.97 nM | 0.57 nM
16 | CC(C)C(c1ccc(C(F)(F)F)cc1)n1nc(CF)c2c(=O)[nH]c(N(C)C)nc21 (single isomer, unassigned) [Example 162] | 0.63 nM | 0.54 nM
17 | CC(C)C(c1ccc(C(F)(F)F)cc1)n1nc(CF)c2c(=O)[nH]c(N(C)C)nc21 (single isomer, unassigned) [Example 163] | 0.07 nM | 0.056 nM
18 | CC(c1ccc(OC(F)(F)F)cc1)n1nc(CF)c2c(=O)[nH]c(N(C)C)nc21 (single isomer, unassigned) [Example 164, (R)- or (S)-6-(Dimethylammo)-3-(fluoromethyl)-1-(1-(4-(trifluoromethoxy)phenyl)ethyl)-1H-pyrazolo[3,4-d]pyrimidin-4(5H)-one] | 2 nM | 1.7 nM
19 | CC(c1ccc(OC(F)(F)F)cc1)n1nc(CF)c2c(=O)[nH]c(N(C)C)nc21 (single isomer, unassigned) [Example 165, (S)- or (R)-6-(Dimethylamino)-3-(fluoromethyl)-1-(1-(4-(trifluoromethoxy)phenyl)ethyl)-1H-pyrazolo[3,4-d]pyrimidin-4(5H)-one] | 0.28 nM | 0.33 nM
20 | CC(c1ccc(OC(F)(F)F)c(F)c1)n1nc(CF)c2c(=O)[nH]c(N(C)C)nc21 (single isomer, unassigned) [Example 166, (R)- or (S)-6-(Dimethylamino)-1-(1-(3-fluoro-4-(trifluoromethoxy)phenyl)ethyl)-3-(fluoromethyl)-1H-pyrazolo[3,4-d]pyrimidin-4(5H)-one] | 0.91 nM | 0.61 nM
21 | CC(c1ccc(OC(F)(F)F)c(F)c1)n1nc(CF)c2c(=O)[nH]c(N(C)C)nc21 (single isomer, unassigned) [Example 167, (S)- or (R)-6-(Dimethylamino)-1-(1-(3-fluoro-4-(trifluoromethoxy)phenyl)ethyl)-3-(fluoromethyl)-1H-pyrazolo[3,4-d]pyrimidin-4(5H)-one] | 0.18 nM | 0.2 nM
22 | CC(c1ccc(C(F)(F)F)c(F)c1)n1nc(CF)c2c(=O)[nH]c(N(C)C)nc21 (single isomer, unassigned) [Example 168, (R)- or (S)-6-(Dimethylamino)-1-(1-(3-fluoro-4-(trifluoromethyl)phenyl)ethyl)-3-(fluoromethyl)-1H-pyrazolo[3,4-d]pyrimidin-4(5H)-one] | 8.1 nM | 5.3 nM
23 | CC(c1ccc(C(F)(F)F)c(F)c1)n1nc(CF)c2c(=O)[nH]c(N(C)C)nc21 (single isomer, unassigned) [Example 169, (S)- or (R)-6-(Dimethylamino)-1-(1-(3-fluoro-4-(trifluoromethyl)phenyl)ethyl)-3-(fluoromethyl)-1H-pyrazolo[3,4-d]pyrimidin-4(5H)-one] | 0.2 nM | 0.099 nM
24 | CC(c1ccc(C(C)(C)C)cc1)n1nc(CF)c2c(=O)[nH]c(N(C)C)nc21 (single isomer, unassigned) [Example 170, (R)- or (S)-1-(1-(4-tert-Butylphenyl(ethyl)-6-(dimethylamino)-3-(fluoromethyl)-1H-pyrazolo[3,4-d]pyrimidin-4(5H)-one] | 11 nM | 7.6 nM
25 | CC(c1ccc(C(C)(C)C)cc1)n1nc(CF)c2c(=O)[nH]c(N(C)C)nc21 (single isomer, unassigned) [Example 171, (S)- or (R)-1-(1-(4-tert-Butylphenyl)ethyl)-6-(dimethylamino)-3-(fluoromethyl)-1H-pyrazolo[3,4-d]pyrimidin-4(5H)-one] | 0.24 nM | 0.2 nM
